Entries after “also recorded” stand apart in the source; their conditions may differ. Where a SMILES comes first, the peptide text is derived from it. [ ]: non-standard residue; d: D form. The star is where a group is joined. Hexanoyl = CCCCCC(=O)*; Ahx = NCCCCCC(=O)O
Tests used:
[1] = Brain distribution of 3H-Dihexa after carotid infusion; assay type: in vivo, rat
Procedure: FIG. 44. […] Rats fitted with a carotid cannula were anesthetized and infused with 0.5 ml of isotonic saline containing 10 μCi of 3H-Dihexa and 2 μCi ^14C-Inulin, a vascular marker. Thirty minutes after infusion rats were decapitated, the brains removed, and various brain regions dissected. The tissues were then weighed and solubilized with NCS and 10 ml of scintillation was added. Samples were counted with a scintillation counter using two different windows to quantitate both ^3H and ^14C counts. ^3H/^14Cs were determined so that blood derived Dihexa contamination of tissues could be determined. The average ^3H/^14C from blood was 1687.

[2] = Toxicity observation during Dihexa studies; assay type: in vivo; conditions: studies lasting as long as 96 days
[3] = Metabolic stability in rat serum; assay type: in vitro ADME
MDCK cells = assay: Augmentation of HGF-dependent cell scattering in MDCK cells; assay type: cell-based, canine; conditions: with HGF, Dihexa 10^−10 M to 10^−14M, four days
Procedure: (§1) augmentation of HGF-dependent c-Met phosphorylation in HEK293 cells, or 2) augmentation of HGF-dependent cell scattering in MDCK cells. All the compounds in Family one were tested using the c-Met phosphorylation assay. […]
MDCK cells were grown to 100% confluency on the coverslips in six-well plates and washed twice with PBS. The confluent coverslips were then aseptically transferred to new six well plates containing 900 μl serum free DMEM. Norleual, Hinge peptide, and/or HGF (2.5 ng/ml) were added to appropriate wells. Control wells received PBS vehicle. […] Media was removed and cells were fixed with methanol. Cells were stained with Diff-Quik Wright-Giemsa (Dade-Behring, Newark, Del.) and digital images were taken. Coverslips were removed with forceps and more digital images were captured. Pixel quantification of images was achieved using Image J and statistics were performed using Prism 5 and InStat v.3.05.
MDCK cells were grown to 100% confluency on the coverslips in six-well plates and washed twice with PBS. The confluent coverslips were then aseptically transferred to new six well plates containing 900 μl serum free DMEM. Norleual, Hinge peptide, and/or HGF (20 ng/ml) were added to appropriate wells. Control wells received PBS vehicle. […] Pixel quantification of images was achieved using Image J and statistics were performed using Prism 5 and InStat v.3.05.

[4] = tested on: Dissociated hippocampal neurons; assay: Neuroprotection from growth factor deprivation; assay type: cell-based; conditions: starved 72 hrs +/−HGF 5 ng/ml; Dihexa 10^−10 M and 10^−8M
Procedure: FIG. 39. […] Dissociated hippocampal neurons were starved for 72 hrs+/−HGF at sub-threshold concentrations 5 ng/ml and or Dihexa at 2 different concentrations 10^−10 M and 10^−8M. (**p<0.001,***p<0.0001; Mean+/−SEM).

human HGF = molecular target: T1, human HGF (Homo sapiens, UniProt P14210); assay: HGF dimerization; assay type: biochemical; conditions: 30 minutes in the presence of heparin; N=6
T1 construct: purchased R&D Systems (Minneapolis, Minn.)

[5] = tested on: Dissociated hippocampal neurons; assay: Neuroprotection from oxidative stress (H2O2); assay type: cell-based; conditions: 100 μM H2O2 24 hrs +/−HGF 5 ng/ml; Dihexa 10^−10 M and 10^−8M
Procedure: FIG. 40. […] Dissociated hippocampal neurons were treated with 100 μM H2O2 for 24 hrs+/−HGF at sub-threshold concentrations 5 ng/ml and or Dihexa at 2 different concentrations 10^−10 M and 10^−8M. (*p<0.05,**p<0.01).

c-Met = assay: Augmentation of HGF-dependent c-Met phosphorylation in HEK293 cells; assay type: cell-based, human; conditions: HEK 293 cells treated with HGF+/−Dihexa
Procedure: as §1
Human embryonic kidney cells 293 (HEK293), Madin Darby canine kidney cells (MDCK), and B16F10 murine melanoma cells were grown in DMEM, 10% fetal bovine serum (FBS). Cells were grown to 90-100% confluency before use. For most but not all studies HEK and MDCK cells were serum starved for 24 hours prior to the initiation of drug treatment.
HEK293 cells were seeded in 6 well tissue culture plates and grown to 95% confluency in DMEM containing 10% FBS. The cells were serum deprived for 24 hours prior to the treatment to reduce the basal levels of phospho-Met. […] The lysate was clarified by centrifugation at 15,000 g for 15 minutes, protein concentrations were determined using the BCA total protein assay, and then appropriate volumes of the lysates were diluted with 2× reducing Laemmli buffer and heated for ten minutes at 95° C. […] Proteins were visualized using the Supersignal West Pico Chemiluminescent Substrate system (Pierce, Fenton, Mo.) and molecular weights determined by comparison to protein ladders (BenchMark, Invitrogen; and Kaleidoscope, BioRad). Images were digitized and analyzed using a UVP phosphoimager.

aged rats = assay: Morris water maze, aged rat model; assay type: in vivo; conditions: aged rats of mixed sex; oral Dihexa 2 mg/kg/day, 8 days
Procedure: Swim speed was determined from these values.

Blood stability studies = conditions: not shown
hippocampal neurons = assay: Immunocytochemistry: correlation of spines with synaptic markers; assay type: cell-based, rat; conditions: HGF 10 ng/ml

T1 sequence (P14210 32-728): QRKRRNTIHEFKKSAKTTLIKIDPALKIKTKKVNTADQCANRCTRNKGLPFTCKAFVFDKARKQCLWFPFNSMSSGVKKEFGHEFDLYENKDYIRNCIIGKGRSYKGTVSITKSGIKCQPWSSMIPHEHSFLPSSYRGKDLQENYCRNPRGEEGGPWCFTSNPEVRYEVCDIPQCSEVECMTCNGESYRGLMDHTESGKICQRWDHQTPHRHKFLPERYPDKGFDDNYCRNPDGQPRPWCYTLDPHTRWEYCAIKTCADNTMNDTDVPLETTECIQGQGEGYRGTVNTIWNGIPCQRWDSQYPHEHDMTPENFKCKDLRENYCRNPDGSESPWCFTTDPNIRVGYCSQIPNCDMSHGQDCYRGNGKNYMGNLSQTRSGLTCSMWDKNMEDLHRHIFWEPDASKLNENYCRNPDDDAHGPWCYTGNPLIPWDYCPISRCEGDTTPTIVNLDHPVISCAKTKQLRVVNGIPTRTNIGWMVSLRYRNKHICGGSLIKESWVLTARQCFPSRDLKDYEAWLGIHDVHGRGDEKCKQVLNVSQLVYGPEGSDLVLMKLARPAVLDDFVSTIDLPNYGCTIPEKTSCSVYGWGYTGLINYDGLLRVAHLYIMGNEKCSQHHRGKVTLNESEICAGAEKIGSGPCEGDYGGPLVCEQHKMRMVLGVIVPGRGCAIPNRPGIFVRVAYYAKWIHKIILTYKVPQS

CCCCCC(=O)N[C@@H](Cc1ccc(O)cc1)C(=O)N[C@H](C(=O)NCCCCCC(N)=O)[C@@H](C)CC [Dihexa, N-hexanoic-Tyr-Ile-(6)-aminohexanoic amide] (Hexanoyl-Tyr-Ile-[Ahx]-NH2)
Distribution into brain regions ([1]; thirty minutes after carotid infusion of 3H-Dihexa with 14C-Inulin): concentrated in multiple brain regions
Brain level relative to blood ([1]; thirty minutes after delivery): 40 × blood
Average 3H/14C from blood ([1]; thirty minutes after infusion): 1687
Overt toxicity [2]: no overt toxicity
t1/2 in rat serum [3]: 330 min
HGF-dependent MDCK cell scattering (MDCK cells): stimulate MDCK cell scattering; also recorded: markedly stimulates cell scattering even at picomolar affinities
HGF-dependent MDCK cell scattering (MDCK cells; listed as N-hexanoyl-Tyr-Ile-(6) aminohexamide): spectacularly augment HGF-dependent MDCK cell scattering
Protection of neurons from growth factor deprivation [4]: protects neurons from growth factor deprivation
HGF dimerization (human HGF): blocks HGF dimerization
Protection of neurons from oxidative stress [5]: protects neurons from oxidative stress
Effect on HGF activation (phosphorylation) of c-Met (c-Met): dramatically augment the ability of HGF to activate c-Met; also recorded: work synergistically to activate c-Met; also recorded: enhances the activity of HGF shifting its concentration curve to the left
Water maze performance of aged rats vs untreated controls (aged rats): preformed significantly better in the water maze than untreated rats; also recorded: performed significantly better than untreated controls; also recorded: significantly improved water maze performance
Time stable in the blood (Blood stability studies): over 5 hours

HGF: Hepatocyte growth factor, recombinant, purchased from R&D Systems
Percent correlation of spines to Synapsin (hippocampal neurons): 98%
Mean number of spines per 50 μm dendrite length (hippocampal neurons; 5 days): 33 spines per 50 μm dendrite length

Reference: patent US20140094413A1, “HEPATOCYTE GROWTH FACTOR (HGF) MIMICS AS THERAPEUTIC AGENTS” (WASHINGTON STATE UNIVERSITY, priority 2012, published 2014)
